Where two headings read alike, the source gives them in different places.
Molecular target: T1, KCNQ2/3 channels (Homo sapiens, UniProt O43525+O43526)
T1 construct: expressed in transfected cells
Assay: Fluorescence assay using a voltage sensitive dye (fluorimetry)
Assay type: cell-based

[1] = CHO-K1, plateau effect relative to saturated retigabine (50 μM) = 100%, CHO-K1 cells expressing KCNQ2/3, negative values = antagonistic, read-out: Fluorimetry % efficacy (retigabine = 100%)
[2] = CHO-K1 cells expressing KCNQ2/3, IC50 where % efficacy is negative, read-out: Fluorimetry EC50/IC50

T1 sequence (O43526 whole entry): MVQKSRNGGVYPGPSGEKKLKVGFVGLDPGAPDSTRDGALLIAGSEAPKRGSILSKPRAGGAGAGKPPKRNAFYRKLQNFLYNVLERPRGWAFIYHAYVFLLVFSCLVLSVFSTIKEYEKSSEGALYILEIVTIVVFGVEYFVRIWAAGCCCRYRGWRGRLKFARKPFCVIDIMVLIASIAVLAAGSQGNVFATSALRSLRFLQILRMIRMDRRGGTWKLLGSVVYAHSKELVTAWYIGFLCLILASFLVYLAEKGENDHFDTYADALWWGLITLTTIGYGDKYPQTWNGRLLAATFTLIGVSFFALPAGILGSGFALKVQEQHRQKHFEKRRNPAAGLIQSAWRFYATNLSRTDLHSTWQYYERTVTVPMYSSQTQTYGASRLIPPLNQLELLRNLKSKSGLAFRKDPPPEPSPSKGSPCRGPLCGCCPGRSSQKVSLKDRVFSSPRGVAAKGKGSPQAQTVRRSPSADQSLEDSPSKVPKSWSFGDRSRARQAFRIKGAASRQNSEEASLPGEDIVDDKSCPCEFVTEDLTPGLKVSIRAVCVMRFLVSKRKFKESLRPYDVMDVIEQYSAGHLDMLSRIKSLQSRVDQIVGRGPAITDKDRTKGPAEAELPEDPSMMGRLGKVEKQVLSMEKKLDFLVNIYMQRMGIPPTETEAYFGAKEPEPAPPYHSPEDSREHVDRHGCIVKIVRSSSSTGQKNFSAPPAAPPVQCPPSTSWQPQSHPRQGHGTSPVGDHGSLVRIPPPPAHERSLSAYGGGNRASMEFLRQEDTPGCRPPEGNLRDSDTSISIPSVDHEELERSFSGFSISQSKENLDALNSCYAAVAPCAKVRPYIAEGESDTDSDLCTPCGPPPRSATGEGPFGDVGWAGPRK
T1 sequence (O43525 whole entry): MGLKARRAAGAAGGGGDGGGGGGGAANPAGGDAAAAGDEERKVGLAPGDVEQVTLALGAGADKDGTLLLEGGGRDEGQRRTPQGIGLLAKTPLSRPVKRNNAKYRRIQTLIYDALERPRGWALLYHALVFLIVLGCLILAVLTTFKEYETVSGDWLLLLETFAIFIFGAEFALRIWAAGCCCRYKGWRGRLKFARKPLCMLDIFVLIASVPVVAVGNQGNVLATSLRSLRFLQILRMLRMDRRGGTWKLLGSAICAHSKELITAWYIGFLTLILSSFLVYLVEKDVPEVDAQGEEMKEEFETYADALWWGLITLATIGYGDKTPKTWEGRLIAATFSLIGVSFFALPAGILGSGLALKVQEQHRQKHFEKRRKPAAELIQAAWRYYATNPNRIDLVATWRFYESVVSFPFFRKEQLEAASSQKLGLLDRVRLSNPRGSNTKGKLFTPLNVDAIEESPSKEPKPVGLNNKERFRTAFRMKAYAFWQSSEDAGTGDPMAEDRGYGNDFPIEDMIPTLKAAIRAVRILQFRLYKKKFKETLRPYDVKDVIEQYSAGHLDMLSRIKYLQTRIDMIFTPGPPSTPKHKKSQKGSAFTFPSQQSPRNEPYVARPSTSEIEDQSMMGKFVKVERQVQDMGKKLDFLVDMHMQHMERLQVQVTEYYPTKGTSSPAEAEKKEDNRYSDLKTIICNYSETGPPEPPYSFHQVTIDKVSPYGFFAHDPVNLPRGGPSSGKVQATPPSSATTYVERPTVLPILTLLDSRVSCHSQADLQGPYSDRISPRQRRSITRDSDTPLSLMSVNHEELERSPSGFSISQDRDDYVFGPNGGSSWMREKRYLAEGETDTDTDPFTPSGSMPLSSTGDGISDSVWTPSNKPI

Row | Structure (SMILES) | Emax [1] [%] | EC50 [2] [nM] | EC50 [nM] | Emax (CHO-K1, read-out: Fluorimetry % efficacy (retigabine = 100%)) [%]
1 | CCSc1nc(N(C)CC(C)=O)cc(C)c1C(=O)NCc1cccc(F)c1 [Example 253, 2-Ethylsulfanyl-N-[(3-fluorophenyl)-methyl]-4-methyl-6-[methyl-(2-oxo-propyl)-amino]-pyridine-3-carboxylic acid amide] | 79 | 5740 |  | 
2 | CCSc1nc(N2CCOCC2)cc(C)c1C(=O)NCCCc1ccccn1 [Example 109, 2-Ethylsulfanyl-4-methyl-6-morpholin-4-yl-N-(3-pyridin-2-yl-propyl)-pyridine-3-carboxylic acid amide] | 53 |  |  | 
3 | CCSc1nc(N2CCOC(C(F)(F)F)C2)cc(C)c1C(=O)NCc1cccc(F)c1 (centres unmarked) [Example 260, 2-Ethylsulfanyl-N-[(3-fluorophenyl)-methyl]-4-methyl-6-[2-(trifluoromethyl)-morpholin-4-yl]-pyridine-3-carboxylic acid amide] | 127 | 149 |  | 
4 | CCSc1nc(N2CCn3cc(C(F)(F)F)nc3C2)cc(C)c1C(=O)NCc1cccc(F)c1 [Example 243, 2-Ethylsulfanyl-N-[(3-fluorophenyl)-methyl]-4-methyl-6-[2-(trifluoromethyl)-5,6,7,8-tetrahydro-imidazo[1,2-a]pyrazin-7-yl]-pyridine-3-carboxylic acid amide] | 105 | 1280 |  | 
5 | CCc1nc(N2CCOCC2)cc(C)c1C(=O)NCc1cccc(F)c1 [Example 22, 2-Ethyl-N-[(3-fluorophenyl)-methyl]-4-methyl-6-morpholin-4-yl-pyridine-3-carboxylic acid amide] | 166 | 790 |  | 
6 | CCN(C)c1nc(N2CCOC[C@H]2C)cc(C)c1C(=O)NCCCC(C)(C)C [Example 184, N-(4,4-Dimethyl-pentyl)-2-(ethyl-methyl-amino)-4-methyl-6-[(3R)-3-methyl-morpholin-4-yl]-pyridine-3-carboxylic acid amide] | 228 | 221 |  | 
7 | Cc1cc(N2CCOCC2)nc(C(C)C)c1C(=O)NCc1ccc(Cl)cc1 [Example 327, N-[(4-Chlorophenyl)-methyl]-2-isopropyl-4-methyl-6-morpholin-4-yl-pyridine-3-carboxylic acid amide] | 173 | 50 |  | 
8 | CSc1nc(N2CCOCC2)cc(C)c1C(=O)NCc1ccc(F)cc1 [Example 154, N-[(4-Fluorophenyl)-methyl]-4-methyl-2-methylsulfanyl-6-morpholin-4-yl-pyridine-3-carboxylic acid amide] | 154 | 394 |  | 
9 | CCSc1nc(N(CCOC)Cc2ccc(F)cc2)cc(C)c1C(=O)NCc1cccc(F)c1 [Example 342, 2-Ethylsulfanyl-N-[(3-fluorophenyl)-methyl]-6-[(4-fluorophenyl)-methyl-(2-methoxy-ethyl)-amino]-4-methyl-pyridine-3-carboxylic acid amide] | 124 | 291 |  | 
10 | COCCc1nc(N2CCOCC2)cc(C)c1C(=O)NCCCC(C)(C)C [Example 358, N-(4,4-Dimethyl-pentyl)-2-(2-methoxy-ethyl)-4-methyl-6-morpholin-4-yl-pyridine-3-carboxylic acid amide] |  |  | 1130 | 234
11 | CCSc1nc(N2CCOCC2)cc(C)c1C(=O)NCc1ccc(F)cc1O [Example 18, 2-Ethylsulfanyl-N-[(4-fluoro-2-hydroxy-phenyl)methyl]-4-methyl-6-morpholin-4-yl-pyridine-3-carboxylic acid amide] | 224 | 98 |  | 
12 | Cc1cc(N2CCOCC2)nc(C(C)C)c1C(=O)NCc1cccc(F)c1 [Example 23, N-[(3-Fluorophenyl)-methyl]-2-isopropyl-4-methyl-6-morpholin-4-yl-pyridine-3-carboxylic acid amide] | 182 | 113 |  | 
13 | COCc1ccc(CNC(=O)c2c(C)cc(N3CCOCC3)nc2C2CC2)cc1F [Example 355, 2-Cyclopropyl-N-[[3-fluoro-4-(methoxymethyl)-phenyl]methyl]-4-methyl-6-morpholin-4-yl-pyridine-3-carboxylic acid amide] | 167 | 721 |  | 
14 | CCSc1nc(N2CCOCC2)cc(C)c1C(=O)NCc1ccccc1-c1ccccc1 [Example 50, 2-Ethylsulfanyl-4-methyl-6-morpholin-4-yl-N-[(2-phenyl-phenyl)-methyl]-pyridine-3-carboxylic acid amide] | -97 | 63 |  | 
15 | CSc1nc(N2CCOC[C@H]2C)cc(C)c1C(=O)NCCCC(C)(C)C [Example 192, N-(4,4-Dimethyl-pentyl)-4-methyl-6-[(3R)-3-methyl-morpholin-4-yl]-2-methylsulfanyl-pyridine-3-carboxylic acid amide] | 236 | 46 |  | 
16 | COc1nc(N2CCOC[C@H]2C)cc(C)c1C(=O)NCc1ccc(Cl)cc1 [Example 215, N-[(4-Chlorophenyl)-methyl]-2-methoxy-4-methyl-6-[(3R)-3-methyl-morpholin-4-yl]-pyridine-3-carboxylic acid amide] | 191 | 147 |  | 
17 | Cc1cc(N2CCOCC2)nc(N(C)C)c1C(=O)NCc1ccc(F)c(F)c1 [Example 206, N-[(3,4-Difluoro-phenyl)-methyl]-2-dimethylamino-4-methyl-6-morpholin-4-yl-pyridine-3-carboxylic acid amide] | 207 | 402 |  | 

Further molecules by falling EC50 [2], results first:

Row | Emax [1] [%] | EC50 [2] [nM] | Structure (SMILES) | EC50 [nM] | Emax (CHO-K1, read-out: Fluorimetry % efficacy (retigabine = 100%)) [%]
18 | 126 | 9380 | CCSc1nc(N2CCOCC2)cc(C)c1C(=O)NCCCc1cccnc1 [Example 114, 2-Ethylsulfanyl-4-methyl-6-morpholin-4-yl-N-(3-pyridin-3-yl-propyl)-pyridine-3-carboxylic acid amide] |  | 
19 | 56 | 7310 | CCSc1nc(N2CCC3(COC3)C2)cc(C)c1C(=O)NCc1cccc(F)c1 [Example 222, 2-Ethylsulfanyl-N-[(3-fluorophenyl)-methyl]-4-methyl-6-(2-oxa-6-azaspiro[3.4]octan-6-yl)-pyridine-3-carboxylic acid amide] |  | 
20 | 142 | 4520 | CCSc1nc(N2CCOCC2)cc(C)c1C(=O)NCCOC(C)C [Example 103, 2-Ethylsulfanyl-N-(2-isopropoxy-ethyl)-4-methyl-6-morpholin-4-yl-pyridine-3-carboxylic acid amide] |  | 
21 | 146 | 1220 | COCCOc1nc(N2CCOCC2)cc(C)c1C(=O)NCc1cccc(F)c1 [Example 21, N-[(3-Fluorophenyl)-methyl]-2-(2-methoxy-ethoxy)-4-methyl-6-morpholin-4-yl-pyridine-3-carboxylic acid amide] |  | 
22 | 174 | 740 | C/C=C/c1nc(N2CCOCC2)cc(C)c1C(=O)NCc1cccc(F)c1 [Example 9, N-[(3-Fluorophenyl)-methyl]-4-methyl-6-morpholin-4-yl-2-[(E)-prop-1-enyl]pyridine-3-carboxylic acid amide] |  | 
23 | 153 | 635 | CCSc1nc(N(C)CCOC)cc(C)c1C(=O)NCc1cccc(F)c1 [Example 35, 2-Ethylsulfanyl-N-[(3-fluorophenyl)-methyl]-6-(2-methoxy-ethyl-methyl-amino)-4-methyl-pyridine-3-carboxylic acid amide] |  | 
24 | 110 | 528 | CCSc1nc(N(C)CC2CCOCC2)cc(C)c1C(=O)NCc1cccc(F)c1 [Example 61, 2-Ethylsulfanyl-N-[(3-fluorophenyl)-methyl]-4-methyl-6-[methyl-(tetrahydro-pyran-4-yl-methyl)-amino]-pyridine-3-carboxylic acid amide] |  | 
25 | 182 | 374 | CCSc1nc(N2C(C)COCC2C)cc(C)c1C(=O)NCc1cccc(F)c1 (centres unmarked) [Example 262, 6-(3,5-Dimethyl-morpholin-4-yl)-2-ethylsulfanyl-N-[(3-fluorophenyl)-methyl]-4-methyl-pyridine-3-carboxylic acid amide] |  | 
26 | 210 | 308 | Cc1cc(N2CCOCC2)nc(N2CCCC2)c1C(=O)NCc1cccc(F)c1 [Example 24, N-[(3-Fluorophenyl)-methyl]-4-methyl-6-morpholin-4-yl-2-pyrrolidin-1-yl-pyridine-3-carboxylic acid amide] |  | 
27 | 137 | 274 | CCSc1nc(N2CCOC(C)(C)C2)cc(C)c1C(=O)NCc1cccc(F)c1 [Example 252, 6-(2,2-Dimethyl-morpholin-4-yl)-2-ethylsulfanyl-N-[(3-fluorophenyl)-methyl]-4-methyl-pyridine-3-carboxylic acid amide] |  | 
28 | 220 | 219 | CCN(C)c1nc(N2CCOCC2)cc(C)c1C(=O)NCc1ccc(F)c(F)c1 [Example 203, N-[(3,4-Difluoro-phenyl)-methyl]-2-(ethyl-methyl-amino)-4-methyl-6-morpholin-4-yl-pyridine-3-carboxylic acid amide] |  | 
29 |  | 156 | Cc1cc(N2CCOCC2)nc(C(C)C)c1C(=O)NCCC(O)C(C)(C)C (racemic) [Example X5, N-(3-Hydroxy-4,4-dimethyl-pentyl)-2-isopropyl-4-methyl-6-morpholin-4-yl-pyridine-3-carboxylic acid amide] |  | 
30 | 226 | 79 | CCSc1nc(N2CCOCC2)cc(C)c1C(=O)NCCCC1(C)CC1 [Example 350, 2-Ethylsulfanyl-4-methyl-N-[3-(1-methyl-cyclopropyl)-propyl]-6-morpholin-4-yl-pyridine-3-carboxylic acid amide] |  | 
31 | 181 | 69 | CCC(C)c1nc(N2CCOCC2)cc(C)c1C(=O)NCc1cccc(F)c1 (centres unmarked) [Example 216, N-[(3-Fluorophenyl)-methyl]-4-methyl-2-(1-methyl-propyl)-6-morpholin-4-yl-pyridine-3-carboxylic acid amide] |  | 
32 | 174 | 43 | Cc1cc(N2CCOCC2)nc(C(C)C)c1C(=O)NCc1ccc(F)c(F)c1 [Example 310, N-[(3,4-Difluoro-phenyl)-methyl]-2-isopropyl-4-methyl-6-morpholin-4-yl-pyridine-3-carboxylic acid amide] |  | 
